Measurements taken from patent US20140220566A1, “MATERIALS AND METHODS FOR DETERMINING SENSITIVITY POTENTIAL OF COMPOUNDS” (ELECTROPHORETICS LIMITED, priority 2011, published 2014).

Experiments:
MUTZ-3 cells = test: PLS score plot of proteomic response, fourth study; assay type: cell-based, human; conditions: FIG. 3, ANOVA filtered protein list
Description: In the fourth study (40-002—8) Mutz-3 cells were incubated with 2 contact sensitizer (120 μM cinnamic aldehyde, 4 μM DNCB), 1 respiratory sensitizer (150 μM TMA), 1 irritant (200 μM SDS) and 1 controls (untreated).
A preferred method for classification of chemicals is employing partial least squares regression analysis (PLS). PLS discriminant analysis identifies the most important classifiers from the list of interest. A model was built using the response variables (y) highlighted in red and the ANOVA filtered proteins as predictors (x). The first PLS components (x-axis) was plotted against the second PLS component (y-axis) and separated the biomarkers having a role in classifying the three experimental groups “control”, “irritant” and sensitizer”.
In the score plot each point represents one 1 sample. Based on the ANOVA filtered protein list samples a good separation between control, sensitizer and irritant treated samples was achieved.

Myeloperoxidase (MPO) = test: Myeloperoxidase ELISA in supernatant of Mutz-3 cells; assay type: cell-based, human; conditions: FIG. 4
Source text: (§1) As an alternative approach to find predictive markers for sensitizing potential we explored the potential of cell culture supernatants as a source of markers for chemical safety by adopting a more targeted approach using commercially available immunoassays to measure the levels of three known inflammatory markers. The three proteins to be measured by ELISA were selected on the basis of a review of literature references to secreted inflammatory protein response to chemical sensitizer. Cells were cultured as described in Example 1 and the spent medium removed for direct analysis by ELISA. All kits were used in accordance with manufacturer's instructions.
MPO is a peroxidase enzyme which is stored in lysosomes and released during inflammation Myeloperoxidase was measured by ELISA (Assay-Designs) (FIG. 4).

[1] = test system: Calprotectin (S100A8/S100A9); test: Calprotectin immunoassay in supernatant of Mutz-3 cells; assay type: cell-based, human; conditions: FIG. 5
Source text: as §1
Calprotectin is heterodimer of S100A8/S100A9 was measured in supernatant of Mutz-3 cells by a commercially available immunoassay (Immundiagnostik AG, Bensheim, Germany) (FIG. 5). Calprotectin is actively secreted by phagocytes in response to stress and binds to Toll-like receptor 4 (TLR4). Toll-like receptors play an important role in the innate immune system and activation of TLR4 by calprotectin further amplifies inflammation (Ehrchen et al. 2009). TLR4 and interleukin 12 double knock-out mice, show a marked decrease of DC-sensitization by a broad range of different sensitizers including 2,4,6-trinitro-1-chlorobenzene (TNCB), oxazolone, and fluorescein isothiocyanate (Martin et al. 2008). […]

dendritic cell lines = conditions: Mitjans et al. 2009; cited from earlier work

| Compound | relative distance of treated samples from control in PLS score plot (MUTZ-3 cells) | MPO release into supernatant of Mutz-3 cells (Myeloperoxidase (MPO)) | S100A8/S100A9 (calprotectin) levels in supernatant of Mutz-3 cells [1] | response of the IL-8 assay (dendritic cell lines) |
| --- | --- | --- | --- | --- |
| O=[N+]([O-])c1ccc(Cl)c([N+](=O)[O-])c1 [DNCB, 1-chloro-2,4-dinitrobenzene] | greatest relative distance from the control | activates an inflammatory pathway involving release of the peroxidase enzyme MPO | modulated | – |
| O=C(O)c1ccc2c(c1)C(=O)OC2=O [TMA, Trimellitic anhydride] | smaller distance to control sample | does not activate this pathway | – | fails to respond |
